Measured values as given in US8946201B2, “Methods for inhibiting TGF-β” (Saint Louis University, priority 2007, dated 2015).

System: TβR-I and TβR-II
Test: 125I-TGF-β1 affinity labeling, Mv1Lu cells
Type: cell-based, mink
Experimental: (A) Mv1Lu cells were treated with 50 μg/ml cholesterol at 37° C. After several time periods, as indicated, ^125I-TGF-β1-affinity labeling was performed at 0° C. ^125I-TGF-β1 affinity-labeled TGF-β receptors were analyzed by 7.5% SDS-PAGE and autoradiography (a) and quantified with a PhosphoImager. The bracket indicates the locations of ^125I-TGF-β1 affinity-labeled TβR-I and TβR-II. The ratio of ^125I-TGF-β1 binding to TβR-II and TβR-I is plotted against incubation time (b).
(B, C, D, E) Cells were treated with increasing concentrations of cholesterol in the presence (C) and absence (B, D, E) of 0.2% β-CD, as indicated. After 1 hr at 37° C., ^125I-TGF-β1 affinity labeling of TβR-I and TβR-II in cells was performed at 0° C. ^125I-TGF-β1 affinity-labeled TβR-I and TβR-II were analyzed by 7.5% SDS-PAGE and autoradiography or quantified with a PhosphoImager. A representative of a total of three analyses is shown (top). The bracket indicates the locations of ^125I-TGF-β affinity-labeled TβR-I and TβR-II. The relative intensities of ^125I-TGF-β1 affinity-labeled TβR-I and TβR-II in cells treated without cholesterol were taken as 100%. The quantitative data from three analyses is shown (bottom).
The bracket indicates the locations of ^125I-TGF-β1 affinity-labeled TβR-I and TβR-II. The relative intensities of ^125I-TGF-β1-TβR-I and ^125I-TGF-β1-TβR-II complexes, which were quantified with a PhosphoImager, are plotted against TGF-β1 concentrations (bottom).
(A, B, C, D, E, F) Cells were treated with LDL (50 μg protein/ml), VLDL (5 μg protein/ml), HDL (50 μg protein/ml), lipoprotein (a) (10 μg/ml), fluvastatin (F; 1 μM), lovastatin (L; 1 μM), nystatin (Nys; 25 μg/ml), β-CD (β-CD; 8 mM), cholest-4-en-3-one (3-one; 50 μg/ml) or cholesterol (Chol; 50 μg/ml) alone or combination of two. After 1 hr at 37° C. or 16 hr at 37° C. (for fluvastatin and lovastatin), ^125I-TGF-β1 affinity labeling of cell-surface TGF-β receptors was performed at 0° C. ^125I-TGF-β1 affinity-labeled TβR-I and TβR-II were analyzed by 7.5% SDS-PAGE and autoradiography. The relative intensities of TβR-I and TβR-II were quantified with a PhosphoImager. The ratio of ^125I-TGF-β1 binding to TβR-II and TβR-I were estimated. The numbers above the lane sequence denote the ratio of TβR-II/TβR-I.
(G) Mv1Lu cells were treated with 50 μg/ml of cholesterol and cholesterol analogs/derivatives including 25-hydroxycholesterol, 7-dehydrocholesterol (7-DHC), 7-ketocholesterol, 7β, 8β-epoxycholesterol, 7β-hydroxycholesterol, and oxidized 7-dehydrocholesterol (oxy-7DHC). After 1 hr at 37° C., ^125I-TGF-β1 affinity labeling of TGF-β receptors was performed. ^125I-TGF-β1 affinity-labeled TβR-I and TβR-II were analyzed by 7.5% SDS-PAGE and autoradiography. The bracket indicates the locations of ^125I-TGF-β1-affinity-labeled TβR-I and TβR-II. The relative intensities of ^125I-TGF-β1 affinity-labeled TβR-I and TβR-II were determined by a PhosphoImager. The ratios of ^125I-TGF-β1 binding to TβR-II and TβR-I were estimated. The numbers above the lane sequence denote the ratio of TβR-II/TβR-I.
After cross-linking, cell lysates were analyzed by 7.5% SDS-PAGE and autoradiography or quantified by a PhosphoImager. For all experiments, cholesterol or cholesterol derivatives were prepared as the stock solution with a concentration of 25 mg/ml in ethanol. The final concentration of ethanol in the medium was 0.2% (by vol.).

[1] = 50 μg/ml, 60-min or 120-min incubation (FIG. 3A)
[2] = 125 μg/ml in the presence of 0.2% β-CD

CC(C)CCC[C@@H](C)[C@H]1CC[C@H]2[C@@H]3CC=C4C[C@@H](O)CC[C@]4(C)[C@H]3CC[C@]12C [cholesterol]
effect on 125I-TGF-β1 binding to TβR-II [1]: did not affect | increase of 125I-TGF-β1 binding to TβR-I [1]: ~1.5 fold | ratio of TβR-II/TβR-I (50 μg/ml, 60 min or 120 min, 0.37 without cholesterol): 0.18 | effect on the affinities of TGF-β1 binding to both TβR-I and TβR-II (50 μg/ml, 1 hr): does not alter | relative potency in increasing binding to TβR-I and decreasing the ratio (50 μg/ml, 1 hr (FIG. 4G)): the most potent of these compounds | increase of 125I-TGF-β1 binding to TβR-I (50 μg/ml, 1 hr, 125 pM 125I-TGF-β1 (FIG. 3F)): ~2 fold | 125I-TGF-β1 binding to TβR-II, relative intensity (50 μg/ml, 1 hr, 125 pM 125I-TGF-β1, ~180 untreated): ~120 ×10^3 A.U. | 125I-TGF-β1 binding to TβR-I, relative intensity (50 μg/ml, 1 hr, 125 pM 125I-TGF-β1, ~350 untreated): ~700 ×10^3 A.U. | ratio of TGF-β1 binding to TβR-II and TβR-I (50 μg/ml, 1 hr, 0.62 untreated (FIG. 4G)): 0.29 | increase of 125I-TGF-β1 binding to TβR-I (50 μg/ml, 1 hr, Mv1Lu cells): ~2.5 fold | ratio of TβR-II/TβR-I (50 μg/ml, 1 hr, Mv1Lu cells, 0.42 untreated): 0.20 | effect on 125I-TGF-β1 binding to TβR-II [2]: little effect | increase of 125I-TGF-β1 binding to TβR-I [2]: ~3 fold | effect of exogenous cholesterol on the statin effect on the ratio (CHO-K1, Mv1Lu and BAEC cells (FIGS. 4D, E and F)): abolished | effect on binding of 125I-TGF-β1 to TβR-II (increasing concentrations, 1 hr, Mv1Lu cells): did not significant alter

CC[C@H](C)C(=O)O[C@H]1C[C@@H](C)C=C2C=C[C@H](C)[C@H](CC[C@@H]3C[C@@H](O)CC(=O)O3)[C@H]21 [lovastatin, reference compound]
ratio of TβR-II/TβR-I (1 μM, 37° C. 16 hr, Mv1Lu cells, 0.88 untreated): 1.18

C[C@@H]1[C@H](O)[C@@H](C)/C=C/C=C/CC/C=C/C=C/C=C/C=C/C(O[C@H]2O[C@H](C)[C@@H](O)[C@H](N)[C@@H]2O)CC2O[C@](O)(CC(O)C(O)CCC(O)CC(O)CC(O)CC(=O)O[C@H]1C)CC(O)C2C(=O)O (some centres unmarked) [nystatin, reference compound]
effect on the LDL- or cholesterol-induced increase of 125I-TGF-β1 binding to TβR-I (co-treatment, β-CD 8 mM, nystatin 25 μg/ml, cholest-4-en-3-one 50 μg/ml (FIG. 4B, C)): abolished
